Consider two substances from patent US20150158914A1, “PEPTIDES, CONSTRUCTS AND USES THEREFOR” (priority 2010, published 2015).

“Also recorded” adds a separate entry of the source. Ends that are not written are not given here. * marks the point of attachment. FITC = O=C1OC2(c3ccc(O)cc3Oc3cc(O)ccc32)c2ccc(NC(=S)*)cc21 Bounds are passed on as bounds.

The test system of one experiment is X-protein. The experiment in a line: X-protein-mediated apoptosis of HepG2 transfectants (annexin-V staining). The class given is cell-based, hepatitis B virus. To be noted: 10 μM peptide at 3 h, 3 and 24 h, or 3, 24 and 48 h, 51 h culture, listed as oligomerization domain peptide (aa 16-35). How it is done:
No PSG antibiotic was added to the medium as it can interfere with transfection efficiency. The medium was then removed and replaced with opti-MEM medium without 10% FCS. The amount of plasmid DNA used for transfection was […]. Firstly, 0.2 μg of either pcDNA3.1-HBX or pcDNA3-HBX Myc plasmid DNA was mixed with 25 μl of Opti-MEM medium, and then 0.2 μl of polymag transfection reagent was added (these solutions were prepared as a master mixes—the amounts mentioned are indicative for one well). The mixture was incubated for 20 min and then 25 μl added to the cells. The plate was placed onto a magnetic plate on a rotating platform for 20 min, and then the cells incubated for 3 h.
Cells were transfected with X-protein plasmid vectors as described above. After 3 h of transfection on the magnetic plate, the oligomerization domain peptide aa 16-35 or the control X-protein peptide aa 140-153 were added at a final concentration of 10 μM to the cells in MEM without 10% FCS, and cells incubated for either 3 h, 21 h, or 45 h. Peptides were added to MEM without FCS as serum can rapidly degrade small peptides. […]
A drop of mounting solution with DAPI was added to the cells, and covered with a cover slip. Slides were examined by fluorescence microscopy by using a Nikon E600 fluorescent microscope and photos were taken using Nikon ACT-1 software. […]

The subject of a further experiment is C32 melanoma cell line. The experiment in a line: Peptide uptake by other cell lines. The class given is cell-based, human. To be noted: C32, 3 h. How it is done: (§1) The cells were then incubated overnight at 37° and 5% CO2, and then washed thrice with media without FCS. The X-protein peptide in 250 μl of appropriate media without FCS was added to the cells at a final concentration of 10 μM, and the slides incubated for 3 h at 37° C. and 5% CO2. The cells were washed with PBS, fixed with 4% formaldahyde in PBS for 30 min, and washed thrice with PBS. […] The slides were dried overnight in the dark, and examined by microscopy by using a Nikon E600 fluorescent microscope. Photos were taken using Nikon ACT-1 software. For further examination, slides were then examined by confocal microscopy using a Leica TCS-SP2 confocal microscope.
(§2) The X-protein cell-permeable peptide aa 16-22 was tested for its ability to be taken up by other mammalian cell lines including the human C32 melanoma, DU145 prostate carcinoma, TK1 T cell lymphoma, H441 lung carcinoma, Rin-m5f rat pancreatic islet tumor and Cos-1/7 green monkey kidney cell lines. TK1 cells are suspension cells whereas all other cell lines are adherent cells. Cells were incubated with the fluoresceinated X-protein cell-permeable peptide 16-22 for 3 h in medium appropriate for that cell line in the absence of FCS. The HepG2 cell line was used as a positive control. The X-protein peptide was able enter all adherent cell lines regardless of type or source of the cell (FIGS. 22 and 23).

Another experiment concerns Cos-1 kidney cell line. The experiment in a line: Peptide uptake by other cell lines. The class given is cell-based, green monkey. How it is done: as §1, §2
For another experiment, the system named is Cos-7 kidney cell line. The experiment in a line: Peptide uptake by other cell lines. The class given is cell-based, green monkey. How it is done: as §1, §2
Experiment [1] concerns nonadherent cell line TK1. The experiment in a line: Peptide uptake by suspension cell line. The class given is cell-based. The settings on record: TK1 in suspension, 3 h; listed as X-protein cell-permeable peptide aa 16-22. The procedure: as §1, §2
The test system of another experiment is adherent TK1 T cells. Kind of experiment: Peptide uptake by attached TK1 cells. The class given is cell-based. From the text:
As above, the lymphocytic cell line TK1 in suspension was not able to take up the X-protein cell-permeable peptide aa 16-22. Once activated, circulating lymphocytes have the ability to adhere to the vascular endothelium, to attach to antigen presenting cells, and to attach to and move through the extracellular matrix. The fact that adherent monocytes took up the peptide raised the possibility that TK1 T cells attached to a surface might also be able to take up the X-protein cell permeable peptide aa 16-22. TK1 cells were adhered to MAdCAM-1-coated glass slides or left to bind directly to the surface of the glass slides. Cells attached to the slides were incubated with the X-protein cell-permeable peptide aa 16-22 for 3 h in RPMI without FCS. Virtually all TK1 cells attached via α4β7 to MAdCAM-1 took up the peptide, whereas only 50 to 60% of cells directly attached to the glass slide took up the peptide (FIG. 27).

Consider “FITC-Acp-LCLRPVGAESRGRPVSGPFG [Peptide 16-35]”, for which, in the experiment with X-protein (pCDNA3-HBX Myc transfectants), the “inhibition of full-length X-protein-mediated apoptosis” value is given as “inhibited full-length X-protein-mediated apoptosis of HepG2 cells; also recorded: significantly reduced X-protein-mediated apoptosis in a dose-dependent fashion”. In the experiment on X-protein (pCDNA3.1-HBX transfectants), the “inhibition of truncated X-protein-mediated apoptosis” value was “inhibited truncated X-protein-mediated apoptosis of HepG2 cells; also recorded: significantly reduced X-protein-mediated apoptosis in a dose-dependent fashion”.

Consider “FITC-LCLRPVG ({FITC}-LCLRPVG) [Peptide 16-22]”, for which the entry into cells result in the experiment on C32 melanoma cell line was “able to enter”; with Cos-1 kidney cell line (COS-1, 3 h) it was “taken up less efficiently”; in the experiment with Cos-7 kidney cell line (COS-7, 3 h), “taken up less efficiently”; in experiment [1] it was “completely unable to enter”. Also, the “uptake of the peptide, cells positive” value with C32 melanoma cell line (no FCS) is > 90 % cells positive; in the experiment on Cos-1 kidney cell line (Cos-1, 3 h, no FCS) it was 60 to 70 % cells positive; with Cos-7 kidney cell line (Cos-7, 3 h, no FCS) it was 60 to 70 % cells positive. Besides, the “uptake by adherent TK1 T cells” value in the experiment with adherent TK1 T cells (adhered to MAdCAM-1-coated glass slides or to the slides directly) was “took up”. Also, the “TK1 cells that took up the peptide” value is reported as “Virtually all” in the experiment with adherent TK1 T cells (attached via α4β7 to MAdCAM-1, 3 h) and 50 to 60 % of cells with adherent TK1 T cells (directly attached to the glass slide, 3 h).
